Results from patent publication US20120021432A1, “Phosphorylated NF45 Biomarkers, Antibodies And Methods Of Using Same” (ArQule, Inc., priority 2010, published 2012).

Tests used:
pNF45 (T388) [1] = experiment: Western blot analysis for pNF45 (T388) in MIA PaCa-2 cells; assay type: cell-based, human; conditions: for time course of NF45 phosphorylation / induction of NF45 phosphorylation, pNF45 (T388): MIA Paca-2 cells; for time course of NF45 phosphorylation: up to 24 hrs; for induction of NF45 phosphorylation, pNF45 (T388): various times
Excerpt: Cell culture and chemicals: MIA PaCa-2 cells were maintained in DMEM medium supplemented with 10% FBS. β-Lapachone and (S)-1′-(3-(4-(tert-butyl)phenoxy)-2-hydroxypropyl)-2H-spiro[naphtho[1,2-b][1,4]oxathiine-3,4′-piperidine]-5,6-dione were synthesized by ArQule, Inc. Doxorubicin, cisplatin, camptohethcin and NU7026 (DNA-PK inhibitor) were purchased from Sigma. KU55933 (ATM inhibitor) was purchased from EMD Chemicals.
Antibody generation: Anti-pNF45 (T388) antibody was generated by Covance (Norwood, Mass.). Briefly, a peptide corresponding to amino acids 383 to 390 (EESME-T-QE) (SEQ ID NO: 2) of NF45 was phosphorylated at threonine 388 in vitro and then conjugated with KHL. Polyclonal antibody was produced from rabbit and passed through affinity column with unphosphorylated peptide and then purified through the column with phosphorylated peptide. Two batches of antibody were obtained: #438 and #439. All the experiments were carried out using #438. Monoclonal antibody are generated by utilizing SEQ ID NO:2 and the hybridoma method known in the art and described herein.
(§1) Immunoprecipitation and Western Blot Analysis: Cell lysate was used for immunoprecipitation using anti-NF90 antibody (#612154, BD Biosciences) or IgG as negative control. Samples then were separated into two equal potions: one blotted with anti-pNF45(T388)(#438) and another for anti-NF45 (K-22) (sc-133817, Santa Cruz Biotechnology). Other antibodies used in this study are pATM(S1981)(# 200-301-400, Rockland), DNA-PKcs (MA-370-P0, Thermo Scientific), ATM(2C1) (GTX70103, GeneTex), DNA-PK (S2506) (ab18192, Abcam), DNA-PK (T2609) (ab18356, Abcam), pCHK2(T68) (#2661, CST), b-actin (#5441, Sigma), g-H2AX (A300-081A, Bethyl).
Knockdown of NF45: Cells were transfected with NF45 On-target plus SMART pool (L-017599-00-0005, Thermo Fisher) or On-Target plus Control siRNA (200 nM, #D-001810-0X, Thermo Fisher) using Oligofectamine (#12252-011, Invitrogen). Cells were used for further examination after 48 hr post transfection.
Threonine Phosphorylation of pNF45 in MIA PaCa-2 Cells is Responsive to β-Lapachone: MIA PaCa-2 cells were treated with or without β-Lapachone (4 μM) (“Agent A”) for 8 hrs and cell lysate was subjected to western blot analysis for the detection of pNF45(T388). […] Samples were then separated into two portions: one for detection of pNF45 (T388) and another for detection of total NF45. C. Cells were transfected with NF45 siRNA or control siRNA and then treated with or without β-Lapachone (4 μM) for 8 hrs.
Time- and concentration-dependent pNF45 (T388) in response to β-Lapachone in MIA PaCa-2 cells: MIA PaCa-2 cells were treated with β-Lapachone (4 μM) (“Agent A”) for various times (A), or for 2 hrs at various concentrations of β-Lapachone (B). Western blot analysis was performed for the detection of pNF45 (T388) and NF45. […] Early induction of pNF45 (T388) was observed within 1 hr and reached peak level between 4 to 8 hrs.
Effect of DNA damage agents on phosphorylation of NF45: To determine whether other DNA damage agents are able to regulate NF45, we treated MIA Paca-2 cells with or without doxorubicin (1 μM), cisplatin (10 μM) or camptothecin (10 μM) for various times. pNF45 (T388) was examined by western blot analysis.

pNF45 (T388) [2] = experiment: Effect of ATM and DNA-PK inhibitors on NF45 phosphorylation by β-Lapachone in MIA PaCa-2 cells (Western blot); assay type: cell-based, human; conditions: then β-Lapachone 4 μM 8 hrs in presence of inhibitor
Excerpt: as §1
(§2) β-Lapachone-induced phosphorylation of NF45 is ATM- and DNA-PK-dependent: MIA PaCa-2 cells were pretreated with or without ATM inhibitor KU55933 (10 μM), or DNA-PK inhibitor NU7026 (20 μM), for 1 hr and then treated with β-Lapachone (4 μM) (“Agent A”) for 8 hrs in the presence of inhibitors. Western blot analysis was performed using specific antibodies.

pNF45 (T388) [3] = experiment: Immunofluorescence staining of pNF45 (T388) in MIA PaCa-2 cells; assay type: cell-based, human
Description: Immunofluorescent Staining: Cells were seeded in 8-well chamber slides and treated with or without β-Lapachone for various time periods and then fixed with 4% paraformaldhyde. pNF45 was detected using anti-pNF45(T388) antibody, and NF45 using anti-NF45 (K-22) antibody. Slides were mounted using Vectashield Mounting Medium with DAPI (#H-1200, Vector Laboratories) and images were obtained using Zeiss fluorescence microscope.
Immunofluorescence staining pNF45 (T388) in response to β-Lapachone: MIA PaCa-2 cells were plated in 8-well chamber slides and treated with β-Lapachone (4 μM) (“Agent A”) for various times. Cells were fixed and stained for either pNF45 (A) or NF45 (B).

ATM = experiment: Western blot, activation of ATM in β-Lapachone treated cells; assay type: cell-based, human; conditions: MIA PaCa-2 cells, coincides with induction of pNF45 (T388)
Excerpt: as §1, §2

DNA-PK = experiment: Western blot, activation of DNA-PK in β-Lapachone treated cells; assay type: cell-based, human; conditions: MIA PaCa-2 cells, coincides with induction of pNF45 (T388)
Excerpt: as §1, §2

CHK2 = CHK2 phosphorylation in treated cells; assay type: cell-based
Excerpt: as §1

g-H2AX = g-H2AX elevation in treated cells; assay type: cell-based
Excerpt: as §1

DNA topoisomerase II = conditions: cited from earlier work
[4] = test system: human prostate and promyelocytic leukemia cancer cell lines; conditions: cited from earlier work
[5] = test system: Human breast and ovary carcinoma; conditions: cited from earlier work
[6] = test system: human ovarian cancer, human prostate cancer, human breast cancer, human multiple myeloma; conditions: single agent, xenotransplant mouse models; cited from earlier work
[7] = cited from earlier work
[8] = test system: cancer cells from a variety of tissues; normal cells from these tissues; conditions: cited from earlier work

Q: What does the source list for `COc1cccc2c1C(=O)c1c(O)c3c(c(O)c1C2=O)C[C@@](O)(C(=O)CO)C[C@@H]3O[C@H]1C[C@H](N)[C@H](O)[C@H](C)O1` [doxorubicin]?
A: time course of NF45 phosphorylation (pNF45 (T388) [1]; 1 μM): steadily increased up to 24 hrs; induction of NF45 phosphorylation, pNF45 (T388) (pNF45 (T388) [1]; 1 μM): induced NF45 phosphorylation

Q: For `O=c1cc(N2CCOCC2)oc2c1ccc1ccccc12` [NU7026], which “effect of DNA-PK inhibitor on β-Lapachone-induced phosphorylation of NF45” value (pNF45 (T388) [2]; inhibitor 20 μM pretreated 1 hr) is on record?
A: The value was “phosphorylation of NF45 induced by β-Lapachone is ATM and DNA-PK dependent”.

Q: With `N.N.[Cl][Pt][Cl]` [cisplatin] as the compound, how does the “induction of NF45 phosphorylation, pNF45 (T388)” value (pNF45 (T388) [1]; 10 μM) read?
A: The value was “not cisplatin induced NF45 phosphorylation”.

Q: Which results are given for `CC1(C)CCC2=C(O1)c1ccccc1C(=O)C2=O` [β-Lapachone, 3,4-dihydro-2,2-dimethyl-2H-naphtho[1,2-b]pyran-5,6-dione]?
A: time of early induction of pNF45 (T388) (pNF45 (T388) [1]; MIA PaCa-2 cells, 4 μM): ≤ 1 hr; time and concentration dependence of pNF45 (T388) induction (pNF45 (T388) [1]; MIA PaCa-2 cells, 4 μM for various times, or 2 hrs at various concentrations): time- and concentration-dependent manner; induction of pNF45 (T388) (pNF45 (T388) [1]; MIA PaCa-2 cells, 4 μM, 8 hrs): induced pNF45 (T388); cellular location of induced pNF45 (T388) (pNF45 (T388) [3]; MIA PaCa-2 cells, 4 μM): primarily located in nuclei; time of induction of pNF45 (T388), immunofluorescence (pNF45 (T388) [3]; MIA PaCa-2 cells, 4 μM, various times): ≤ 2 hrs; pNF45 (T388) levels, immunofluorescence staining (pNF45 (T388) [3]; β-Lapachone treated cells, pNF45 (T388) antibody): significant increase; activation of ATM (ATM): activation; activation of DNA-PK (DNA-PK): activation; CHK2 phosphorylation (CHK2): CHK2 phosphorylation; g-H2AX level (g-H2AX): g-H2AX elevation; inhibition of DNA topoisomerase II (DNA topoisomerase II): inhibits DNA topoisomerase II; induction of cell death [4]: induces cell death with characteristics of apoptosis; cytotoxic effect [5]: showed sensitivity of the cytotoxic effect of β-Lapachone without signs of apoptosis; number of tumors, tumor size, survival time [6]: decrease the number of tumors, reduce tumor size, or increase the survival time, or a combination of these; water solubility [7]: non-water soluble; cell death in cancer cells versus normal cells [8]: induces cell death in cancer cells from a variety of tissues without causing death of normal cells from these tissues

Q: With `O=c1cc(-c2cccc3c2Sc2ccccc2S3)oc(N2CCOCC2)c1` [KU55933] as the compound, how does the “effect of ATM inhibitor on β-Lapachone-induced phosphorylation of NF45” value (pNF45 (T388) [2]; inhibitor 10 μM pretreated 1 hr) read?
A: Its value is “phosphorylation of NF45 induced by β-Lapachone is ATM and DNA-PK dependent”.

Q: With `CC[C@@]1(O)C(=O)OCc2c1cc1n(c2=O)Cc2cc3ccccc3nc2-1` [camptothecin] as the compound, how does the “time course of NF45 phosphorylation” value (pNF45 (T388) [1]; 10 μM) read?
A: Its value is “steadily increased up to 24 hrs”.

Q: And the “induction of NF45 phosphorylation, pNF45 (T388)” value (pNF45 (T388) [1]; 10 μM)?
A: Its value is “induced NF45 phosphorylation”.
